This test concerns metabotropic glutamate receptors. Kind of test: displacement of 1S,3R-ACPD-sensitive [3H]glutamate binding to rat brain cell membranes (crude membranes of rat forebrain). The protocol: The binding of [^3H]glutamate was conducted with crude membranes of rat forebrain as described by Schoepp and True, Neuroscience Lett., 145, 100-104 (1992) and Wright et al., J. Neurochemistry 63, 938-945, 1994.

As usually defined, the IC50 is the concentration at which inhibition is half-maximal. Read a high IC50 as weaker potency in that assay. `NC1(C(=O)O)CC(Sc2ccccc2)C2C(C(=O)O)C21` (stereo not drawn) [Example 1, 1SR,2RS,4SR,5SR,6SR-2-Amino-4-(phenylthio)-bicyclo[3.1.0]hexane-2,6-dicarboxylic acid]: the IC50 was found to be 0.242 µM.
As to `N[C@]1(C(=O)O)C[C@@H](SCc2ccco2)[C@@H]2[C@@H](C(=O)O)[C@@H]21` (racemic) [Example 8, 1SR,2RS,4RS,5SR,6SR-2-Amino-4-((2-furanylmethyl)thio)bicyclo[3.1.0]hexane-2,6-dicarboxylic acid], the “affinity for metabotropic glutamate receptors (result in words)” value is “essentially inactive”.

These data come from patent EP0774454A1, “Excitatory amino acid receptor antagonists” (ELI LILLY AND COMPANY, priority 1995, dated 1997).
